Measurements from patent US20250339443A1, “METHOD FOR TREATING OR PREVENTING CALCIUM RELEASE-ACTIVATED CALCIUM CHANNEL OR DISCOIDIN DOMAIN RECEPTOR 2 RELATED DISORDERS OR CONDITIONS” (LumiSTAR Biotechnology, Inc., priority 2023, published 2025).

Assays:
CRAC channel [1] = biological target: T1, CRAC channel (Rattus norvegicus, UniProt Q5M848); test: CRAC channel activity / SOCE in HSC-T6; assay type: cell-based; conditions: HSC-T6, 10 μM pretreatment 45 min
T1 construct: endogenous in cells; host or cells: HSC-T6
T1 sequence (Q5M848 whole entry): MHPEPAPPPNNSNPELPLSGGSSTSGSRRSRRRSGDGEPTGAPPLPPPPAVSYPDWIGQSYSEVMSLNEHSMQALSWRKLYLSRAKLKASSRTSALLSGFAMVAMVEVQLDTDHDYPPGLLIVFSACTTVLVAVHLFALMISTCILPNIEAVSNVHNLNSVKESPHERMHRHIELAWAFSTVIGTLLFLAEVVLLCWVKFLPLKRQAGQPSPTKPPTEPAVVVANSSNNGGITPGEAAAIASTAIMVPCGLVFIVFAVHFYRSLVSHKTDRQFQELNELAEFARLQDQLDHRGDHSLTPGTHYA
Description: Cells were co-treated with various compounds (10 μM) and TGF-β1 for 24 hours. Following this, cell lysates were harvested, and the protein expression was assessed by Western blot analysis. FIG. 3D depicts the examination of TGF-β1-induced fibronectin deposition and α-SMA expression in HCF treated with 10 μM of DMSO, BTP2, WRG-28, or Av through immunofluorescence staining. The images were captured using a confocal microscope, the Olympus FV-1000. FIG. 3E, FIG. 3F, and FIG. 3G illustrate the assessment of CRAC channel activity in HCF, MRC5, and rat HSC-T6. These cells were pretreated with 10 μM of BTP2, WRG-28, or Av for 45 min. The evaluation included measuring the second peak of each calcium wave and the rate of entry. Each bar within the figure represents the mean value derived from 77 to 91 cells for HCF, 31 to 49 cells for MRC5, and 43 to 94 cells for HSC-T6. In all the graphs, *, **, and *** denote p-values of <0.05, 0.01, and 0.001, respectively.
(§1) Cells cultured on a glass-bottom 96 well plate for 48 hours were treated with different compounds (10 μM) and Fura 2-AM (1 μM) simultaneously in a solution containing 145 mM NaCl, 2.8 mM KCl, 2 mM CaCl2, 2 mM MgCl2, 10 mM D-glucose, 10 mM HEPES, pH 7.4 for 40 minutes in the dark. […] All the images were analyzed by using IGOR Pro software. […]

[2] = system: obstruction-induced persistent progression of renal fibrosis; test: Kidney transcriptome (RNA sequencing, ingenuity pathway analysis) in RUUO mice; assay type: in vivo, mouse; conditions: treated after the obstruction was released (7/15*d)
Description: FIG. 10A and FIG. 10B display how WRG-28 and Av treatments effectively reduce RUUO-induced overwhelming fibrosis and inflammation. In FIG. 10A, total ribonucleic acid (RNA) extracts from control mice (sham) and mice treated with DMSO, WRG-28, or Av after the obstruction was released (7/15*d) underwent ingenuity pathway analysis (IPA). Both FIG. 10A and FIG. 10B illustrate large-scale transcriptome analysis, further affirming the potent effects of WRG-28 and Av in preventing and protecting kidneys from progressive fibrosis.
Total RNA was extracted from kidneys by homogenizing the samples in TRIzol reagent (Invitrogen). Chloroform was added and the homogenate separates into three layers, the upper clear aqueous containing RNA was transferred into a new tube, and RNA was precipitated by adding isopropanol. The pellets were washed with 70% ethanol and then dissolved in RNase-free water. The RNA passes the quality control, including RNA integrity number (RIN) >7, OD260/OD280 ˜1.8, etc., were sent for sequencing. Transcriptomes were analyzed by ingenuity pathway analysis (IPA).
Total ribonucleic acid (RNA) was extracted from […]: control mice (sham) and mice that received treatments with DMSO, WRG-28, or Av after the obstruction was released (7/15*d). Transcriptomes were then analyzed by ingenuity pathway analysis (IPA). […]

CRAC channel [3] = biological target: CRAC channel (Homo sapiens, UniProt Q96D31); test: SOCE in macrophages; assay type: cell-based; design: endogenous in cells; host or cells: HEK293T; conditions: 10 μM
CRAC channel (Homo sapiens, UniProt Q96D31), sequence (Q96D31 whole entry): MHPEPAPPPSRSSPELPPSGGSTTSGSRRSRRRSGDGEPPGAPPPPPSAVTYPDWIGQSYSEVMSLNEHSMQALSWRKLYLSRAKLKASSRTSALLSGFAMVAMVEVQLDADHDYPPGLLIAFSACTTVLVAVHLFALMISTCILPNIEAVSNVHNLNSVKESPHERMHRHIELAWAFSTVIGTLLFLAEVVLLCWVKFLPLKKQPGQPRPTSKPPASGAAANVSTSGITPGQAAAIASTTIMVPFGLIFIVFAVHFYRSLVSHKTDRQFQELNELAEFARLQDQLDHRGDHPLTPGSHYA
Description: The effects of BTP2, WRG-28, Av, and CM-4620 on SOCE were evaluated in T cells (FIG. 4A) and macrophages (FIG. 4E). Cells were cultured on glass-bottom 96-well plates and pretreated with various compounds (10 μM) while being loaded with Fura 2-AM. Subsequently, the cytosolic calcium signal waves were recorded, and the second peak of each wave and rate of entry were assessed. Each bar represents the mean value derived from, 43 to 111 cells for T cells (FIG. 4A), and 52 to 91 cells for macrophages (FIG. 4E). Cytokine induction in T cells and macrophages was conducted as described in the methods section. The levels of cytokines, including IL-2, TNF-α, and IL-6 in the culture medium were assessed using ELISA kits for T cells (FIG. 4B, FIG. 4C, and FIG. 4D) and macrophages (FIG. 4F, FIG. 4G, and FIG. 4H), respectively. Each bar represents the mean±SEM. In all the graphs, *, **, and *** denote p-values of <0.05, 0.01, and 0.001, respectively. […]
as §1

CCNS(=O)(=O)c1ccc(COc2ccc3nc4ccc(=O)cc-4oc3c2)cc1 [WRG-28]
SOCE (CRAC channel [1]): notably reduced | inflammatory responses and fibrotic signaling pathways (transcriptome, IPA) [2]: reduced | SOCE in macrophages (CRAC channel [3]): higher efficacy compared to Av
